# Results taken from patent publication US10562897B2, “Substituted 3,4-dihydro-2H-pyrido[1,2-a]pyrazine-1,6-diones as gamma secretase modulators” (Janssen Pharmaceutica NV, priority 2014, dated 2020).
# Structures can show the parent of a compound that is named as a salt. Where two headings read alike, the source gives them in different places.
# Key:
# Aβ42 = assay: In vivo efficacy: brain level of soluble Aβ42, non-transgenic rodents, single oral dose 30 mg/kg, 4 h, MSD electrochemiluminescence, untreated control = 100; parameters: species or system mouse; conditions: Mus musculus, read-out: Aβ42 (% vs Ctrl) _Mean
# Description: (§1) To determine whether acute administration of an Aβ42 lowering agent would reduce Aβ42 levels in vivo, non-transgenic rodents, e.g. mice or rats were used. Animals treated with the Aβ42 lowering agent were examined and compared to those untreated or treated with vehicle and brain levels of soluble Aβ42, Aβ40, Aβ38, and Aβ37 were quantitated by Meso Scale Discovery's (MSD) electrochemiluminescence detection technology. Treatment periods varied from hours (h) to days and were adjusted based on the results of the Aβ42 lowering once a time course of onset of effect could be established.
# (§2) A typical protocol for measuring Aβ42 lowering in vivo is shown but it is only one of many variations that could be used to optimize the levels of detectable Aβ. For example, Aβ42 lowering compounds were formulated in 20% of Captisol® (a sulfobutyl ether of β-cyclodextrin) in water or 20% hydroxypropyl β cyclodextrin. The Aβ42 lowering agents were administered as a single oral dose or by any acceptable route of administration to overnight fasted animals. After 4 h, the animals were sacrificed and Aβ42 levels were analysed.
# (§3) Blood was collected by decapitation and exsanguinations in EDTA-treated collection tubes. Blood was centrifuged at 1900 g for 10 minutes (min) at 4° C. and the plasma recovered and flash frozen for later analysis. The brain was removed from the cranium and hindbrain. The cerebellum was removed and the left and right hemisphere were separated. The left hemisphere was stored at −18° C. for quantitative analysis of test compound levels. The right hemisphere was rinsed with phosphate-buffered saline (PBS) buffer and immediately frozen on dry ice and stored at −80° C. until homogenization for biochemical assays.
# (§4) Mouse brains from non-transgenic animals were resuspended in 8 volumes of 0.4% DEA (diethylamine)/50 mM NaCl containing protease inhibitors (Roche-11873580001 or 04693159001) per gram of tissue, e.g. for 0.158 g brain, add 1.264 ml of 0.4% DEA. All samples were homogenized in the FastPrep-24 system (MP Biomedicals) using lysing matrix D (MPBio #6913-100) at 6 m/s for 20 seconds. Homogenates were centrifuged at 20800×g for 5 min and supernatants collected. Supernatants were centrifuged at 221.300×g for 50 min. The resulting high speed supernatants were then transferred to fresh eppendorf tubes. Nine parts of supernatant were neutralized with 1 part 0.5 M Tris-HCl pH 6.8 and used to quantify Aβ.
# (§5) To quantify the amount of Aβ42, Aβ40, Aβ38, and Aβ37 in the soluble fraction of the brain homogenates, simultaneous specific detection of Aβ42, Aβ40, Aβ38, and Aβ37 was performed using MSD's electro-chemiluminescence multiplex detection technology. In this assay purified monoclonal antibodies specific for Abeta37 (JRD/Aβ37/3), Abeta38 (J&JPRD/Aβ38/5), Abeta40 (JRF/cAβ40/28), and Abeta42 (JRF/cAβ42/26) were coated on MSD 4-plex plates. Briefly, the standards (a dilution of synthetic Aβ42, Aβ40, Aβ38, and Aβ37) were prepared in 1.5 ml Eppendorf tube in Ultraculture, with final concentrations ranging from 10000 to 0.3 pg/m. The samples and standards were co-incubated with Sulfo-tag labelled JRF/rAß/2 antibody to the N-terminus of Aβ as detector antibody. 50 μl of conjugate/sample or conjugate/standards mixtures were then added to the antibody-coated plate. The plate was allowed to incubate overnight at 4° C. in order to allow formation of the antibody-amyloid complex. Following this incubation and subsequent wash steps the assay was finished by adding read buffer according to the manufacturer's instructions (Meso Scale Discovery, Gaitherburg, Md.).
# (§6) The SULFO-TAG emits light upon electrochemical stimulation initiated at the electrode. MSD Sector instrument SI6000 was used for signal read-out.
# In this model a Aß42 lowering compared to untreated animals would be advantageous, in particular a Aß42 lowering with at least 10%, more in particular a Aß42 lowering with at least 20%. […]
# Aβ40 = assay: In vivo efficacy: brain level of soluble Aβ40, non-transgenic rodents, single oral dose 30 mg/kg, 4 h, MSD electrochemiluminescence, untreated control = 100; parameters: species or system mouse; conditions: Mus musculus, read-out: Aβ40 (% vs Ctrl) _Mean
# Description: as §1, §2, §3, §4, §5
# The SULFO-TAG emits light upon electrochemical stimulation initiated at the electrode. MSD Sector instrument SI6000 was used for signal read-out. […]
# Aβ38 = assay: In vivo efficacy: brain level of soluble Aβ38, non-transgenic rodents, single oral dose 30 mg/kg, 4 h, MSD electrochemiluminescence, untreated control = 100; parameters: species or system mouse; conditions: Mus musculus, read-out: Aβ38 (% vs Ctrl) _Mean
# Description: To determine whether acute administration of an Aβ38 increasing agents would increase Aβ38 levels in vivo, non-transgenic rodents, e.g. mice or rats were used. Animals treated with the Aβ38 increasing agents were examined and compared to those untreated or treated with vehicle and brain levels of soluble Aβ42, Aβ40, Aβ38, and Aβ37 were quantitated by MSD electrochemiluminescence detection technology.
# Treatment periods varied from hours (h) to days and were adjusted based on the results of the Aβ38 increase once a time course of onset of effect could be established.
# as §2, with “measuring Aβ38 increase” for “measuring Aβ42 lowering”, “example, Aβ38 increasing agents” for “example, Aβ42 lowering compounds”, “The Aβ38 increasing” for “The Aβ42 lowering”, “and Aβ38” for “and Aβ42”
# as §3, §4
# as §5, with “[…].” for “pg/m.”
# as §6
# In this model a Aß38 increase compared to untreated animals would be advantageous, in particular a Aß38 increase with at least 10%, more in particular a Aß38 increase with at least 20%. […]
smiles,measurement,setting,value
Cc1cn(-c2ccc3n(c2=O)C[C@@H](C)N(Cc2coc4cc(F)c(Cl)cc24)C3=O)cn1 [Compound 63],response vs control in vivo at 30 mg/kg,"Aβ42; sc, 30 mpk sc",58%
same,response vs control in vivo at 30 mg/kg,"Aβ40; sc, 30 mpk sc (footnote *)",62%
same,response vs control in vivo at 30 mg/kg,"Aβ38; sc, 30 mpk sc",135%
Cc1cn(-c2ccc3n(c2=O)CC(C)N(Cc2csc4c2CC(C(F)(F)F)CC4)C3=O)cn1 (centres unmarked) [Compound 35],response vs control in vivo at 30 mg/kg,"Aβ42; po, dose 30 mg/kg oral dosing",112%
same,response vs control in vivo at 30 mg/kg,"Aβ40; po, dose 30 mg/kg oral dosing",108%
same,response vs control in vivo at 30 mg/kg,"Aβ38; po, dose 30 mg/kg oral dosing",116%
Cc1cn(-c2ccc3n(c2=O)CCN(CC2Cc4c(cccc4C(F)(F)F)O2)C3=O)cn1 (centres unmarked) [Compound 44],melting point,,128 °C
Cc1cn(-c2ccc3n(c2=O)C[C@@H](C)N(Cc2coc4c(Cl)c(Cl)ccc24)C3=O)cn1 [Compound 97],melting point,,227 °C
"Cc1cn(-c2ccc3n(c2=O)CC(C)N(C(C)c2coc4cc(F)c(Cl)cc24)C3=O)cn1 (single isomer, unassigned) [Compound 65]",response vs control in vivo at 30 mg/kg,"Aβ42; po, dose 30 mg/kg oral dosing",58%
same,response vs control in vivo at 30 mg/kg,"Aβ40; po, dose 30 mg/kg oral dosing",52%
same,response vs control in vivo at 30 mg/kg,"Aβ38; po, dose 30 mg/kg oral dosing",165%
"Cc1cn(-c2ccc3n(c2=O)CCN(C(C)c2coc4cc(C(F)(F)F)ccc24)C3=O)cn1 (single isomer, unassigned) [Compound 67]",melting point,,200 °C
Cc1cn(-c2ccc3n(c2=O)C[C@@H](C)N(Cc2cnn4ccc(C(F)(F)F)cc24)C3=O)cn1 [Compound 9],melting point,,170 °C
"Cc1cn(-c2ccc3n(c2=O)CC(C)N(C(C)c2coc4ccc(Cl)cc24)C3=O)cn1 (single isomer, unassigned) [Compound 57]",response vs control in vivo at 30 mg/kg,"Aβ42; sc, 30 mpk sc",100%
same,response vs control in vivo at 30 mg/kg,"Aβ40; sc, 30 mpk sc (footnote *)",105%
same,response vs control in vivo at 30 mg/kg,"Aβ38; sc, 30 mpk sc",134%
Cc1cn(-c2ccc3n(c2=O)CC(C)N(C(C)c2coc4c(F)cc(Cl)cc24)C3=O)cn1 (centres unmarked) [Compound 96],melting point,,201 °C
Cc1cn(-c2ccc3n(c2=O)C[C@@H](C)N(Cc2coc4c(F)cc(Cl)cc24)C3=O)cn1 [Compound 62],response vs control in vivo at 30 mg/kg,"Aβ42; po, dose 30 mg/kg oral dosing",82%
same,response vs control in vivo at 30 mg/kg,"Aβ40; po, dose 30 mg/kg oral dosing",87%
same,response vs control in vivo at 30 mg/kg,"Aβ38; po, dose 30 mg/kg oral dosing",113%
Cc1cn(-c2ccc3n(c2=O)CC(C)N(C(C)c2ccc(OC(F)(F)F)c(O)c2)C3=O)cn1 (centres unmarked) (as salt: HCl) [Compound 51],melting point,,212 °C
Cc1cn(-c2ccc3n(c2=O)CC(C)N(C(C)c2cc(OC4CC4)cc(C(F)(F)F)c2)C3=O)cn1 (centres unmarked) (as salt: HCl) [Compound 48],melting point,,122 °C
Cc1cn(-c2ccc3n(c2=O)C[C@@H](C)N(Cc2coc4ccc(Cl)cc24)C3=O)cn1 [Compound 55],response vs control in vivo at 30 mg/kg,"Aβ42; po, dose 30 mg/kg oral dosing",93%
same,response vs control in vivo at 30 mg/kg,"Aβ40; po, dose 30 mg/kg oral dosing",113%
same,response vs control in vivo at 30 mg/kg,"Aβ38; po, dose 30 mg/kg oral dosing",142%
Cc1cn(-c2ccc3n(c2=O)C[C@@H](C)N(Cc2coc4c(C(F)(F)F)cccc24)C3=O)cn1 [Compound 71],melting point,,225 °C
Cc1cn(-c2ccc3n(c2=O)C[C@@H](C)N(Cc2cc4cc(C(F)(F)F)ccc4o2)C3=O)cn1 [Compound 26],melting point,,164 °C
"Cc1cn(-c2ccc3n(c2=O)CCN(C(C)c2coc4cc(F)c(Cl)cc24)C3=O)cn1 (single isomer, unassigned) [Compound 60]",melting point,,234 °C
Cc1cn(-c2ccc3n(c2=O)CC(C)N(Cc2ccc(C)c(N4CC5CC5C4)c2)C3=O)cn1 (centres unmarked) [Compound 30],response vs control in vivo at 30 mg/kg,"Aβ42; po, dose 30 mg/kg oral dosing",118%
same,response vs control in vivo at 30 mg/kg,"Aβ40; po, dose 30 mg/kg oral dosing",126%
same,response vs control in vivo at 30 mg/kg,"Aβ38; po, dose 30 mg/kg oral dosing",121%
Cc1cn(-c2ccc3n(c2=O)C[C@@H](C)N(Cc2noc4ccc(C(F)(F)F)cc24)C3=O)cn1 [Compound 101],melting point,,140 °C
Cc1cn(-c2ccc3n(c2=O)C[C@@H](C)N(Cc2csc(CC(F)(F)F)c2)C3=O)cn1 [Compound 29],melting point,,110 °C
Cc1cn(-c2ccc3n(c2=O)CC(C)N(Cc2ccc(C)c(N4CC5CC5C4)c2)C3=O)cn1 (centres unmarked) (as salt: HCl) [Compound 30],melting point,,122 °C
Cc1cn(-c2ccc3n(c2=O)CC(C)N(CCN2CCCC(C(F)(F)F)C2)C3=O)cn1 (centres unmarked) (as salt: HCl) [Compound 43],melting point,,138 °C
Cc1cn(-c2ccc3n(c2=O)C[C@@H](C)N(Cc2cc(C(C)C)nn2CC(F)(F)F)C3=O)cn1 [Compound 19],melting point,,144 °C
Cc1cn(-c2ccc3n(c2=O)C[C@@H](C)N(CCc2cc(OC4CC4)cc(C(F)(F)F)c2)C3=O)cn1 (as salt: HCl) [Compound 40],melting point,,102 °C
Cc1cn(-c2ccc3n(c2=O)CC(C)N(C(C)c2ccc(OC(F)(F)F)c(O)c2)C3=O)cn1 (centres unmarked) (as salt: HCl) [Compound 52],melting point,,223 °C
Cc1cn(-c2ccc3n(c2=O)C[C@@H](C)N(Cc2csc(C(F)(F)F)c2)C3=O)cn1 [Compound 28],melting point,,162 °C
Cc1cn(-c2ccc3n(c2=O)CC(C)N(Cc2noc4ccc(Cl)cc24)C3=O)cn1 (centres unmarked) [Compound 14],melting point,,147 °C
Cc1cn(-c2ccc3n(c2=O)CCN(Cc2coc4c(F)cc(Cl)cc24)C3=O)cn1 [Compound 56],melting point,,232 °C
Cc1cn(-c2ccc3n(c2=O)C[C@@H](C)N(Cc2cc(OC4CC4)cc(C(F)(F)F)c2)C3=O)cn1 (as salt: HCl) [Compound 33],melting point,,149 °C
"Cc1cn(-c2ccc3n(c2=O)CCN(C(C)c2coc4cc(C(F)(F)F)ccc24)C3=O)cn1 (single isomer, unassigned) [Compound 68]",melting point,,204 °C
Cc1cn(-c2ccc3n(c2=O)C[C@@H](C)N(CC2(c4cc(OC5CC5)cc(C(F)(F)F)c4)CC2)C3=O)cn1 (as salt: HCl) [Compound 53],melting point,,197 °C
